# In the supplement of paper PMC13380429:
# Assays:
# Conditions in all cases: 72 h
# HepG2 [1] = experiment: cell viability relative to DMSO; higher = less toxic
# Vero E6 [2] = experiment: as above
# Caco-2 [3] = experiment: as above
# Calu-3 [4] = experiment: as above
# U2OS [5] = experiment: as above
# HepG2 [6] = experiment: relative viability EC50 (midpoint between 100% and the lowest measured viability); higher = less toxic
# Vero E6 [7] = experiment: as above
# Caco-2 [8] = experiment: as above
# Calu-3 [9] = experiment: as above
# U2OS [10] = experiment: as above
# HepG2 [11] = experiment: drug sensitivity score (DSS) for viability; higher = more toxic; extreme values may be limits of the assay
# Vero E6 [12] = experiment: as above
# Caco-2 [13] = experiment: as above
# Calu-3 [14] = experiment: as above
# U2OS [15] = experiment: as above
Compound,cell viability (HepG2 [1]; 1 nM) [%],cell viability (HepG2 [1]; 10 nM) [%],cell viability (HepG2 [1]; 100 nM) [%],cell viability (HepG2 [1]; 1000 nM) [%],cell viability (HepG2 [1]; 10000 nM) [%],cell viability (Vero E6 [2]; 1 nM) [%],cell viability (Vero E6 [2]; 10 nM) [%],cell viability (Vero E6 [2]; 100 nM) [%],cell viability (Vero E6 [2]; 1000 nM) [%],cell viability (Vero E6 [2]; 10000 nM) [%],cell viability (Caco-2 [3]; 1 nM) [%],cell viability (Caco-2 [3]; 10 nM) [%],cell viability (Caco-2 [3]; 100 nM) [%],cell viability (Caco-2 [3]; 1000 nM) [%],cell viability (Caco-2 [3]; 10000 nM) [%],cell viability (Calu-3 [4]; 1 nM) [%],cell viability (Calu-3 [4]; 10 nM) [%],cell viability (Calu-3 [4]; 100 nM) [%],cell viability (Calu-3 [4]; 1000 nM) [%],cell viability (Calu-3 [4]; 10000 nM) [%],cell viability (U2OS [5]; 1 nM) [%],cell viability (U2OS [5]; 10 nM) [%],cell viability (U2OS [5]; 100 nM) [%],cell viability (U2OS [5]; 1000 nM) [%],cell viability (U2OS [5]; 10000 nM) [%],relative viability EC50 (HepG2 [6]) [µM],relative viability EC50 (Vero E6 [7]) [µM],relative viability EC50 (Caco-2 [8]) [µM],relative viability EC50 (Calu-3 [9]) [µM],relative viability EC50 (U2OS [10]) [µM],drug sensitivity score (HepG2 [11]),drug sensitivity score (Vero E6 [12]),drug sensitivity score (Caco-2 [13]),drug sensitivity score (Calu-3 [14]),drug sensitivity score (U2OS [15])
C[C@]12CCC(=O)C=C1CC[C@@H]1[C@@H]2[C@@H](O)C[C@@]2(C)[C@H]1CC[C@]2(O)C(=O)COP(=O)(O)O [hydrocortisone-phosphate],99.2,99.8,105,89.5,94.3,106,100,106,100,104,100,101,103,110,94.1,98.3,102,98.5,99.8,93.8,101,101,97.1,100,95,> 10,> 10,> 10,> 10,> 10,0.1,0,0,0,0
NC(=O)NO [hydroxyurea],106,81.9,125,115,103,95.6,101,101,97.1,112,96.5,87,103,77.9,94.1,104,89.4,99,103,95.2,97.1,98.2,102,96,99.8,> 10,> 10,> 10,> 10,> 10,0,0,0.1,0,0
CCC(C)n1ncn(-c2ccc(N3CCN(c4ccc(OCC5COC(Cn6cncn6)(c6ccc(Cl)cc6Cl)O5)cc4)CC3)cc2)c1=O (stereo not given) [itraconazole],92.7,94.9,101,92.7,97.6,92.9,87.4,87.2,87.9,108,103,101,111,99.7,97.2,91.1,102,101,104,98.6,92.1,99.5,93.9,102,109,> 10,> 10,> 10,> 10,> 10,0,0,0,0,0
CC1(C)Oc2ccc(C#N)cc2[C@@H](N2CCCC2=O)[C@@H]1O [levcromakalim],109,105,98,101,96.2,92.1,96.6,97.1,97.2,93.7,96.5,99.7,99.1,88.5,99.6,85.7,105,91.8,104,102,103,102,99.4,98,101,> 10,> 10,> 10,> 10,> 10,0,0,0,0,0
Clc1cccc(C(c2ccc3[nH]cnc3c2)n2ccnc2)c1 (stereo not given) [liarozole],99.6,104,99.3,111,89.3,94.2,90.5,94.8,94.8,95,97.2,87.8,98.7,93.9,85.4,99,96.1,93.8,103,101,97.8,95,95.5,93.9,96.3,> 10,> 10,> 10,> 10,> 10,0,0,0,0,0
CC(=O)N(C)c1cc(-c2ccnc3c(C(=O)c4cccs4)cnn23)ccc1F [lorediplon],94,107,95.6,96.1,80,97.9,98.9,93.9,96.3,91,100,93.9,87.5,95.1,88.1,90.8,106,98.6,104,99.6,99.2,97,97,96.7,96.6,> 10,> 10,> 10,> 10,> 10,1.1,0,0.3,0,0
CN1CCc2c(c3ccccc3n2Cc2ccccc2)C1 [mebhydrolin],94.3,102,106,77,94.2,106,99.4,99.9,94.1,89.6,90.3,92.8,90.4,101,100,106,95.8,106,104,104,96.5,102,98.5,98.2,95.3,> 10,> 10,> 10,> 10,> 10,3.1,0,0,0,0
